Patent US20240082281A1, “ANTI-INFLAMMATORY PHYTONUTRIENTS FOR USE IN THE TREATMENT OR PREVENTION OF SYNOVITIS” (SOCIÉTÉ DES PRODUITS NESTLÉ S.A., priority 2013, published 2024)

Experiments:
[1] = test system: Dunkin-Hartley guinea pigs; test: Spontaneous osteoarthritis in Dunkin-Hartley guinea pigs: histological OA score and synovial score (OARSI); type: in vivo, guinea pig; details: in diet 31 weeks (oleuropein 0.025%, rutin 0.5%, curcumin 0.25%); week 35; vs control group; p<0.01
Experimental: An in vivo study of spontaneous development of osteoarthritis in Dunkin-Hartley guinea pigs was performed. Sixty-five male Dunkin-Hartley guinea-pigs aged 3 weeks were obtained from Charles River Laboratories (Paris). Animals were housed 5 per cage in solid bottom cages and fed with standard guinea-pig diet and water ad libitum. All animals were allowed one week for acclimatization to housing conditions prior to phytonutrients administration. PVC pipes were added to the cages to improve housing conditions and minimize stress.
Substantially purified oleuropein (>90%) was purchased from Extrasynthese (Genay, France). Substantially purified rutin (>94%) was purchased from Sigma-Aldrich (Buchs, Switzerland).
Oleuropein, rutin and curcumin were integrated in the diet. […] Food intake was controlled at W9, W15, W21, W26 and W34 by weighing daily quantities of food added and remaining. […]
Paraffin embedded right knees were cut with a microtome (Leica) in 6 μm sections, in the central area not covered by meniscus, following the Cushin plane, as recommended by OARSI. […] Each compartment of the section (tibial median, tibial lateral, femoral median and femoral lateral) was scored by two blinded trained experts following OARSI recommendation and to assess the global cartilage score, each compartment score was added. […]
The results (mean±SD) were calculated for each parameter. […]

[2] = test system: PGE2; test: PGE2 in guinea pig serum by competitive ELISA; type: in vivo; details: in diet 31 weeks; week 35; vs control group
Experimental: 6 h fasting blood was obtained in the morning, under ketamine/xylazine tranquilization, at the superficial veins at the ears, each 6 weeks: W4 (=TO), W10, W16, W22, W28. At W35, blood was collected by intracardiac puncture just before euthanasia, under general anesthesia.
PGE2 was measured in guinea pig serum using a competitive ELISA kit (Arbor Assays, USA).
The results (mean±SD) were calculated for each parameter. Following a normality test, a parametric ANOVA with Dunnett's post-test or Pearson correlation was performed on all the experiments. *p<0.05; **<0.01; ***p<0.001.

[3] = test system: ADAMTS-5; test: ADAMTS-5 mRNA expression (real-time PCR, relative to GAPDH) in bovine primary chondrocytes in alginate beads; type: cell-based, Bos Taurus; details: 1.5 μM each, 3 days
Experimental: (§1) An in vitro study of bovine primary chondrocytes in alginate beads was performed. Substantially purified oleuropein (>98%) was purchased from Extrasynthese (Genay, France). Substantially purified hydroxytyrosol (>98%) was purchased from Extrasynthese (Genay, France). Substantially purified quercetin (>97%) was purchased from HWI Analytik GmbH (Ruelzheim, Germany).
(§2) The foot of a young cow was washed to remove soil. The skin was removed from the foot. The articulation was opened transversally. Intra articular ligaments were transected. The opened articulation was washed with phosphate buffered saline. With a scalpel blade, full thickness slices of cartilage were dissected out and collected in DMEM high glucose with 10 mM Hepes and 1% Penicillin-Streptomycin. Slices of cartilage were washed in DMEM high glucose with 10 mM Hepes and 1% Penicillin-Streptomycin. […]
(§3) Total RNA was isolated from a pool of 40 beads and isolated using RNeasy kit from Qiagen. cDNA was obtained by reverse transcription of RNA with the Primescript 1st strand cDNA Synthesis kit from Takara. mRNA expression of ADAMTS-5, COX-2, MMP-13 and GAPDH were quantified in real-time PCR (SYBR Green).
(§4) Data were expressed as fold change in gene expression compared to negative control (cells cultured in complete medium).
(§5) Data was expressed as median±S.E.Median (2 experiments of 3 replicates each). […]

[4] = test system: COX-2; test: COX-2 mRNA expression (real-time PCR, relative to GAPDH) in bovine primary chondrocytes in alginate beads; type: cell-based, Bos Taurus; details: 1.5 μM each, 3 days
Experimental: as §1, §2, §3, §4, §5

[5] = test system: MMP-13; test: MMP-13 mRNA expression (real-time PCR, relative to GAPDH) in bovine primary chondrocytes in alginate beads; type: cell-based, Bos Taurus; details: 1.5 μM each, 3 days
Experimental: as §1, §2, §3, §4, §5

[6] = test system: Primary osteoblasts from the calvaria of newborn Wistar rats; test: Alkaline phosphatase (ALP) activity of primary osteoblasts; type: cell-based, rat; details: day 15; 1 μM OLP, 1 μM HTy, 10^−9 M 1,25(OH)2D3; vs C−
Experimental: Alkaline phosphatase activity of osteoblasts and potentiation of effect by vitamin D were investigated. Primary osteoblasts were isolated from the calvaria of newborn Wistar rats by enzymatic digestion as described by […] et al. in 2004. During all experiments, cells were maintained in α-minimal essential medium with 10% heat-inactivated fetal bovine serum and 1% penicillin/streptomycin under conditions of 5% CO2 and 37° C. Cells were seeded on Coll-1-coated 96-well plates at a density of 3500 cells/well or in 24-well plates at a density of 3×10^4 cells/well and cultured for 2 days in α-MEM to reach confluence. Cells were then exposed to different conditions: minimal medium (C-), minimal medium containing 50 μg/ml ascorbic acid, 5 mM β-glycerophosphate (C+; optimized medium), and minimal medium supplemented with 1 μM oleuropein (OLP) and/or 1 μM hydroxytyrosol (HTy) and/or 10^-9 M 1,25 dihydroxivitamin […] dissolved in dimethylsulfoxide (DMSO) and 1,25(OH)2D3 was dissolved in ethanol. […] Enzymatic activity of alkaline phosphatase (ALP) was measured kinetically on Treatment Days 0, 5, 9, 12 and 15. […] Absorbance was measured at 405 nm and 30° C., and every 2 min 30 s for 30 min using a VarioSklan Flash microplate reader. ALP activity was expressed as micromoles of p-NPP per hour per milligram of protein. […] Data were expressed as mean±SEM. […]. […]

[7] = disease conditions (presence of IL1a 10 ng/ml), vs IL1a
[8] = normal conditions (absence of IL1a), vs CTL−

COc1cc(/C=C/C(=O)CC(=O)/C=C/c2ccc(O)c(OC)c2)ccc1O [curcumin]
total OA score (histological cartilage score) [1]: decreasing cartilage degradation and histological OA score | PGE2 levels in plasma/serum [2]: only non-significant effect

O=c1c(O)c(-c2ccc(O)c(O)c2)oc2cc(O)cc(O)c12 [quercetin]
ADAMTS-5 mRNA expression relative to GAPDH [3, 7]: decrease expression of ADAMTS-5 | ADAMTS-5 mRNA expression relative to GAPDH [3, 8]: decrease expression of ADAMTS-5 | COX-2 mRNA expression relative to GAPDH [4, 7]: decrease expression of COX-2 | COX-2 mRNA expression relative to GAPDH [4, 8]: can reduce expression of COX-2 | MMP-13 mRNA expression relative to GAPDH [5, 7]: decrease expression of MMP-13 | MMP-13 mRNA expression relative to GAPDH [5, 8]: decrease expression of MMP-13

C=C1/C(=C\C=C2/CCC[C@]3(C)[C@@H]([C@H](C)CCCC(C)(C)O)CC[C@@H]23)C[C@@H](O)C[C@@H]1O [vitamin D3, 1,25 dihydroxivitamin D3]
alkaline phosphatase (ALP) activity / osteoblast activity [6]: small but statistically significant increase
